Data set [1] has as its target T1, AtPSAT1 (Arabidopsis thaliana, UniProt Q96255).
T1 construct: gene PSAT1; residues 72-430 (71-residue chloroplast transit peptide removed), 359 residues plus N-terminal SNA left after TEV cleavage of His6-tag; E. coli BL21 Gold, pMCSG68; homodimer (~80 kDa by SEC)
T1 sequence (Q96255 72-430): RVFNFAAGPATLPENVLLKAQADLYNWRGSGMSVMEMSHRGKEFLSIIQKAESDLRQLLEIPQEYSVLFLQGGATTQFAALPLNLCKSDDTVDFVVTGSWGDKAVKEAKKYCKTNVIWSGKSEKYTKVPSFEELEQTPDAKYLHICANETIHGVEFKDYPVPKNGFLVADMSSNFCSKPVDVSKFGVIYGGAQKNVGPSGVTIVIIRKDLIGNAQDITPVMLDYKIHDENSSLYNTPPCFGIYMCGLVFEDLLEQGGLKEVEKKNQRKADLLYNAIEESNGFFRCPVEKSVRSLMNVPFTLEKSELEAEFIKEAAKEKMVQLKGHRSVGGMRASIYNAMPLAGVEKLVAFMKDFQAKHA
The data set is described as follows: X-ray crystallography, […] Å. In kind it is binding. The note with it: covalent; PLP-PSer geminal diamine intermediate also bound to K265; cocrystallized with 50 mM PSer, pH 8.5, no lithium sulfate.

Data set [2] deals with T1, AtPSAT1. The experiment in a line: X-ray crystallography, […] Å. In kind it is binding. The note with it: covalent; internal aldimine (Schiff base) with K265; 1 mM PLP added; pH 8.5, 0.2 M lithium sulfate.
Data set [3] deals with T1, AtPSAT1. The experiment in a line: X-ray crystallography: conversion of bound PLP to PMP. In kind it is biochemical. The settings on record: 10 mM Glu added before crystallization; pH 8.5; Glu itself not present in the structure.
Data set [4] deals with T1, AtPSAT1. The experiment in a line: X-ray crystallography, […] Å. In kind it is binding. The note with it: PMP formed from PLP by addition of 10 mM Glu; not covalently bound to K265; pH 8.5, 0.2 M lithium sulfate.
Data set [5] concerns the molecule itself. The data set is described as follows: SEC; HiLoad Superdex 200 16/60; 25 mM HEPES pH 7.4, 100 mM KCl, 50 mM NaCl, 1 mM TCEP; protein mass calculated from the retention volume (~80 kDa).

The source of these data is publication PMC6043687, “Structural Analysis of Phosphoserine Aminotransferase (Isoform 1) From Arabidopsis thaliana– the Enzyme Involved in the Phosphorylated Pathway of Serine Biosynthesis” (Frontiers in Plant Science, 2018).

As usually defined, the stoichiometry N is the number of molecules, sites or subunits per partner or assembly.

With `N[C@@H](COP(=O)(O)O)C(=O)O` [PSer], the crystal structure entry at AtPSAT1 [1] is reported as “The bound PSer creates several hydrogen bonds in the active site”.
For `Cc1ncc(COP(=O)(O)O)c(C=O)c1O` [PLP], the crystal structure result at AtPSAT1 [2] is “The PLP prosthetic group creates a Schiff base (internal aldimine) between C4′ and Nζ of K265”.
For `N[C@@H](CCC(=O)O)C(=O)O` [Glu], the “first half-transamination observed in crystal” value at AtPSAT1 [3] is “electron density maps (Figures 6A,B) revealed the cofactor with the amino group already transferred from Glu”.
Turning to `Cc1ncc(COP(=O)(O)O)c(CN)c1O` [PMP], the crystal structure entry at AtPSAT1 [4] was “Position of PMP is almost identical as PLP, thus its interactions with the protein are preserved”.

B1: Phosphoserine aminotransferase isoform 1 from Arabidopsis thaliana (AtPSAT1), residues 72-430 (enzyme, UniProt Q96255 72-430, looked up)
chain: RVFNFAAGPATLPENVLLKAQADLYNWRGSGMSVMEMSHRGKEFLSIIQKAESDLRQLLEIPQEYSVLFLQGGATTQFAALPLNLCKSDDTVDFVVTGSWGDKAVKEAKKYCKTNVIWSGKSEKYTKVPSFEELEQTPDAKYLHICANETIHGVEFKDYPVPKNGFLVADMSSNFCSKPVDVSKFGVIYGGAQKNVGPSGVTIVIIRKDLIGNAQDITPVMLDYKIHDENSSLYNTPPCFGIYMCGLVFEDLLEQGGLKEVEKKNQRKADLLYNAIEESNGFFRCPVEKSVRSLMNVPFTLEKSELEAEFIKEAAKEKMVQLKGHRSVGGMRASIYNAMPLAGVEKLVAFMKDFQAKHA
modifications: PLP covalently bound to the catalytic K265 (internal aldimine, 6czx); PMP not covalently bound (6czy); cofactor covalently bound to both K265 and PSer (geminal diamine, 6czz)
notes: Phosphoserine aminotransferase isoform 1, chloroplastic, Arabidopsis thaliana; subunit of 430 residues including the transit peptide; construct truncated before R72 (71-residue chloroplast transit peptide removed), residues 72-430, 359 residues; After TEV cleavage the N-terminal residues SNA remain in front of R72 (vector pMCSG68); Crystallised with 1 mM PLP; with 10 mM Glu (PMP form) or 50 mM …
As for B1, in data set [5], the “stoichiometry N” value is 2.
